From ChEMBL document CHEMBL6083234, “Discovery of novel 1,4-dicarbonylthiosemicarbazides as DNA gyrase inhibitors for the treatment of MRSA infection” (Eur J Med Chem, 2024)
Values after ≈ are worked out from the molar mass of the structure shown. Blank lines part the entries; values can stand above or below the molecule they belong to. Active and inactive are the calls of the source. The calls are words filed in the database; no cut-off is given here.

Columns and labels:
Staphylococcus aureus [1] = experiment: Antibacterial activity against Staphylococcus aureus ATCC 29213 assessed as inhibition of bacterial growth incubated for 18 to 24 hrs by broth microdilution method; format: functional; settings: time 18-24 hrs
Staphylococcus aureus [2] = experiment: Antibacterial activity against methicillin-resistant Staphylococcus aureus (15 strains) assessed as inhibition of bacterial growth incubated for 18 to 24 hrs by broth microdilution method; format: functional; settings: time 18-24 hrs
Enterococcus faecium = experiment: Antibacterial activity against Enterococcus faecium (8 strains) assessed as inhibition of bacterial growth incubated for 18 to 24 hrs by broth microdilution method; format: functional; settings: time 18-24 hrs
[3] = system: Staphylococcus epidermidis; experiment: Antibacterial activity against methicillin-sensitive Staphylococcus epidermidis (8 strains) assessed as inhibition of bacterial growth incubated for 18 to 24 hrs by broth microdilution method; format: functional; settings: time 18-24 hrs
DNA gyrase = DNA gyrase (Staphylococcus aureus, UniProt P0A0K8+P20831); experiment: Inhibition of Staphylococcus aureus DNA gyrase ATP hydrolysis activity using pBR322 DNA as substrate incubated for 30 mins in presence of ATP by ADP-Glo reagent based assay; format: protein-complex assay
Staphylococcus aureus [4] = experiment: Antibacterial activity against methicillin-resistant Staphylococcus aureus clinical isolate 16-1 infected in kunming mouse model assessed as survival rate at 10 mg/kg, iv pre-infected with bacteria for 10 mins followed by compound administration and measured for 7 days (reference value: 0 %); format: functional; settings: 168 h, time 7 day
Staphylococcus aureus [5] = experiment: Bacteriostatic activity against Staphylococcus aureus ATCC 29213 assessed as log reduction in bacterial colony counts at 4 times of MIC measured after 24 hrs by time-kill assay; format: functional
Staphylococcus aureus [6] = experiment: Bactericidal activity against Staphylococcus aureus ATCC 29213 at 16 times of MIC measured after 24 hrs by time-kill assay; format: functional, organism-based
Staphylococcus aureus [7] = experiment: Bactericidal activity against Staphylococcus aureus ATCC 29213 assessed as log reduction in bacterial colony counts at 16 times of MIC measured after 24 hrs by time-kill assay; format: functional
[8] = Cytotoxicity against human HepG2 cells assessed as reduction in cell viability incubated for 48 hrs by CCK8 assay; format: toxicity, cell-based
[9] = Metabolic stability in mouse liver microsomes assessed as half-life at 1 uM measured upto 60 mins in presence of NADPH by LC-MS/MS analysis; format: ADME, Microsome
Enterococcus faecalis = experiment: Antibacterial activity against Enterococcus faecalis (8 strains) assessed as inhibition of bacterial growth incubated for 18 to 24 hrs by broth microdilution method; format: functional; settings: time 18-24 hrs
Staphylococcus aureus [10] = experiment: Antibacterial activity against methicillin-resistant Staphylococcus aureus clinical isolate 16-1 infected in kunming mouse model assessed as survival rate at 14 mg/kg, iv pre-infected with bacteria for 10 mins followed by compound administration and measured for 7 days (reference value: 0 %); format: functional; settings: 168 h, time 7 day
Staphylococcus aureus [11] = experiment: Bacteriostatic activity against Staphylococcus aureus ATCC 29213 assessed as inhibition of bacterial growth at 4 times of MIC measured after 24 hrs by time-kill assay; format: functional, organism-based
[12] = system: Staphylococcus epidermidis; experiment: Antibacterial activity against methicillin-resistant Staphylococcus epidermidis (11 strains) assessed as inhibition of bacterial growth incubated for 18 to 24 hrs by broth microdilution method; format: functional; settings: time 18-24 hrs
[13] = Stability in mouse plasma assessed as half-life at 1 uM measured upto 120 mins by LC-MS/MS analysis; format: ADME, cell-free
[14] = target: DNA gyrase (Staphylococcus aureus) (UniProt P0A0K8+P20831); experiment: Inhibition of Staphylococcus aureus DNA gyrase supercoiling using […] pBR322 DNA as substrate assessed as reduction in supercoiled DNA incubated for 30 mins in presence of ATP by agarose gel electrophoresis; format: protein-complex assay; settings: dose 0.01-100 µM
Staphylococcus aureus [15] = experiment: Antibacterial activity against vancomycin intermediate and methicillin-resistant Staphylococcus aureus (2 strains) assessed as inhibition of bacterial growth incubated for 18 to 24 hrs by broth microdilution method; format: functional; settings: time 18-24 hrs
[16] = Cytotoxicity against HUVEC cells assessed as reduction in cell viability incubated for 48 hrs by CCK8 assay; format: toxicity, cell-based; settings: human
[17] = Selectivity index, ratio of CC50 for cytotoxicity against human HepG2 cells to MIC for antibacterial activity against Staphylococcus aureus ATCC 29213; format: toxicity, cell-based; settings: read-out: Selectivity Index
Staphylococcus aureus [18] = experiment: Antibacterial activity against methicillin-resistant Staphylococcus aureus clinical isolate 16-1 infected in kunming mouse model assessed as survival rate at 20 mg/kg, iv pre-infected with bacteria for 10 mins followed by compound administration and measured for 7 days (reference value: 0 %); format: functional; settings: 168 h, time 7 day
[19] = Selectivity index, ratio of CC50 for cytotoxicity against HUVEC cells to MIC for antibacterial activity against Staphylococcus aureus ATCC 29213; format: toxicity, cell-based; settings: human, read-out: Selectivity Index
Staphylococcus aureus [20] = experiment: Bacteriostatic activity against Staphylococcus aureus ATCC 29213 assessed as inhibition of bacterial growth at 1 times of MIC measured after 24 hrs by time-kill assay; format: functional, organism-based
Staphylococcus aureus [21] = experiment: Antibacterial activity against methicillin-sensitive Staphylococcus aureus (8 strains) assessed as inhibition of bacterial growth incubated for 18 to 24 hrs by broth microdilution method; format: functional; settings: time 18-24 hrs
Staphylococcus aureus [22] = experiment: Antibacterial activity against methicillin-resistant Staphylococcus aureus clinical isolate 16-1 infected in kunming mouse model assessed as survival rate at 7 mg/kg, iv pre-infected with bacteria for 10 mins followed by compound administration and measured for 7 days (reference value: 0 %); format: functional; settings: 168 h, time 7 day
Staphylococcus aureus [23] = experiment: Antibacterial activity against methicillin-resistant Staphylococcus aureus incubated for 18 hrs by CLSI protocol based broth microdilution method; format: functional
[24] = target: T1, Ribonuclease P protein component (Staphylococcus aureus, UniProt P0A0H5); experiment: Inhibition of Staphylococcus aureus RnpA-mediated RNA degradation incubated for 20 mins by fluorescence-based high through-put assay
T1 sequence (P0A0H5 whole entry): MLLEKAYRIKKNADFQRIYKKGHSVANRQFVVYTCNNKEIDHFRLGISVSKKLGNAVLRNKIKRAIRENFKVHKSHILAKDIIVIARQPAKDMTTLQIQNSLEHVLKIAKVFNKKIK

SMILES: CCCCCOc1ccc(C(=O)NNC(=S)NC(C)=O)cc1
MIC (Staphylococcus aureus [2]): 2 µg/mL (≈ 6.18 µM)
MIC (Enterococcus faecium): 2 µg/mL (≈ 6.18 µM)
MIC [3]: 1 µg/mL (≈ 3.09 µM)
IC50 (DNA gyrase): 1.81 µM
survival at 10 mg/kg (Staphylococcus aureus [4]): 20%
log(activity) (Staphylococcus aureus [5]): 2.51
Activity (Staphylococcus aureus [6]): Active
log(activity) (Staphylococcus aureus [7]): 6.41
CC50 at 48 h [8]: 2.37 µM
half-life at 1 µM [9]: 28.3 min
MIC (Enterococcus faecalis): 4 µg/mL (≈ 12.4 µM)
survival at 14 mg/kg (Staphylococcus aureus [10]): 20%
Activity (Staphylococcus aureus [11]): Active
MIC [12]: 0.5 µg/mL (≈ 1.55 µM)
half-life at 1 µM [13]: > 120 min
inhibition [14]: Dose-dependent-effect
MIC (Staphylococcus aureus [15]): 2 µg/mL (≈ 6.18 µM)
MIC (Staphylococcus aureus [1]): 2.41 µM
CC50 at 48 h [16]: 6.46 µM
selectivity ratio [17]: 0.98
survival at 20 mg/kg (Staphylococcus aureus [18]): 50%
selectivity ratio [19]: 2.68
Activity (Staphylococcus aureus [20]): Active
MIC (Staphylococcus aureus [21]): 1 µg/mL (≈ 3.09 µM)
survival at 7 mg/kg (Staphylococcus aureus [22]): 10%

SMILES: CCCCCOc1ccc(C(=O)NNC(=S)NC(=O)c2cccs2)cc1
MIC (Staphylococcus aureus [1]): 3.12 µg/mL

SMILES: CC(=O)NC(=S)NNC(=O)c1ccc(O)c(O)c1
MIC (Staphylococcus aureus [1]): 100 µg/mL

SMILES: CCCCCCOc1ccc(C(=O)NN(C)C(=S)NC(C)=O)cc1
MIC (Staphylococcus aureus [1]): > 100 µg/mL

SMILES: CCCCCOc1ccc(C(=O)NNC(=S)NC(=O)CCC)cc1
MIC (Staphylococcus aureus [1]): 12.5 µg/mL

SMILES: CC(=O)O[C@H]1C(=O)[C@@]2(C)[C@H]([C@H](OC(=O)c3ccccc3)[C@]3(O)C[C@H](OC(=O)[C@H](O)[C@@H](NC(=O)c4ccccc4)c4ccccc4)C(C)=C1C3(C)C)[C@]1(OC(C)=O)CO[C@@H]1C[C@@H]2O [PACLITAXEL]
CC50 at 48 h [8]: 0.01 µM
CC50 at 48 h [16]: 0.016 µM

SMILES: COCCCOc1ccc(C(=O)NNC(=S)NC(C)=O)cc1
MIC (Staphylococcus aureus [1]): > 100 µg/mL

SMILES: CCCCCCOc1ccc(C(=O)NNC(=O)NC(C)=O)cc1
MIC (Staphylococcus aureus [1]): 100 µg/mL

SMILES: CC(=O)NC(=S)NNC(=O)c1ccccc1O
MIC (Staphylococcus aureus [1]): 50 µg/mL

SMILES: CCC(=O)NC(=S)NNC(=O)c1ccccc1O
MIC (Staphylococcus aureus [1]): 50 µg/mL

SMILES: CCCCCOc1ccc(C(=O)NNC(=S)NC(=O)CCC(=O)O)cc1
MIC (Staphylococcus aureus [1]): 50 µg/mL

SMILES: CCCCCOc1ccc(CC(=O)NNC(=S)NC(C)=O)cc1
MIC (Staphylococcus aureus [1]): 25 µg/mL

SMILES: CCCCCCOc1ccc(C(=O)N(C)NC(=S)NC(C)=O)cc1
MIC (Staphylococcus aureus [1]): > 100 µg/mL

SMILES: CCCCCCOc1ccc(C(=O)NNC(=S)NC(C)=O)cc1
IC50 (DNA gyrase): 1.01 µM
MIC (Staphylococcus aureus [1]): 1.56 µg/mL

SMILES: CCCCCOc1ccc(C(=O)NNC(=S)NC(=O)CCC(=O)OC)cc1
MIC (Staphylococcus aureus [1]): 12.5 µg/mL

SMILES: Cc1ccc(C(=O)NC(=S)NNC(=O)c2ccc(Cl)cc2)cc1C
MIC (Staphylococcus aureus [23]): 16 µg/mL (≈ 44.2 µM)
IC50 [24]: > 50 µM

SMILES: CCCCCOc1ccc(C(=O)NNC(=S)NC(=O)CC)cc1
MIC (Staphylococcus aureus [1]): 1.56 µg/mL

SMILES: CCCCCOc1ccc(C(=O)NNC(=S)NC(C)=O)cc1O
MIC (Staphylococcus aureus [1]): 25 µg/mL

SMILES: CCCCCOc1ccc(C(=O)NNC(=S)NC(=O)c2ccc(C(=O)O)cc2)cc1
MIC (Staphylococcus aureus [1]): > 100 µg/mL

SMILES: CCCCCOc1ccc(C(=O)NNC(=S)NC(C)=O)c(OCCCCC)c1
MIC (Staphylococcus aureus [1]): > 100 µg/mL

Further lines, results first:

MIC (Staphylococcus aureus [1]): > 100 µg/mL
SMILES: CCCCCOc1ccc(C(=O)NNC(=S)NS(C)(=O)=O)cc1

MIC (Staphylococcus aureus [1]): 6.25 µg/mL
SMILES: CC(=O)NC(=S)NNC(=O)c1ccc2ccccc2c1

MIC (Staphylococcus aureus [1]): 50 µg/mL
SMILES: CCCCCOc1ccc(C(=O)NNC(=S)NC(=O)C2CCCC2)cc1

MIC (Staphylococcus aureus [1]): 3.12 µg/mL
SMILES: CC(=O)NC(=S)NNC(=O)c1ccc(C2CC2)cc1

MIC (Staphylococcus aureus [1]): > 100 µg/mL
SMILES: CCCCCCOc1ccc(CNNC(=S)NCC)cc1

MIC (Staphylococcus aureus [1]): 100 µg/mL
SMILES: CC(=O)NC(=S)NNC(=O)c1ccc(N2CCOCC2)cc1

MIC (Staphylococcus aureus [1]): 50 µg/mL
SMILES: CCC(=O)NC(=S)NNC(=O)c1ccccc1

MIC (Staphylococcus aureus [1]): > 100 µg/mL
SMILES: CCCCCOc1ccc(C(=O)NNC(=S)NC(=O)c2ccc(C(=O)OC)cc2)cc1

MIC (Staphylococcus aureus [1]): 6.25 µg/mL
SMILES: CCCCCOc1ccc(C(=O)NNC(=S)NC(=O)C2CC2)cc1
